Data on 10 compounds can be found in patent publication US12326385B2, “Cell-permeable fluorogenic fluorophores” (MAX-PLANCK-GESELLSCHAFT ZUR FÖRDERUNG DER WISSENSCHAFTEN E. …, priority 2018, dated 2025).

A short description of series [1]: UV-Vis and fluorescence spectroscopy of free dye or probe in buffer or SDS. As to conditions: for Φ / ε^SDS: 0.1% SDS in HEPES buffer (pH 7.3); for ε: HEPES buffer (pH 7.3). The class given is physicochemical. On the procedure:
UV-Vis and Fluorescence Spectroscopy
Spectroscopy was performed using 96-well plate (Thermo Fisher) with optical bottom. All measurements were taken at ambient temperature (25±2° C.). Absorption and fluorescence spectra were recorded on Spark® microplate reader (Tecan). Maximum absorption wavelength (λabs), and maximum emission wavelength (λem) were taken in 10 mM HEPES, pH 7.3 buffer unless otherwise noted; reported values for ε are averages (n=3). Normalized spectra are shown for clarity.
(§1) SDS (10% in 10 mM HEPES) was added with dilution of 100 folds as a control group. Absorbance and fluorescence measurements were performed in 96-well plate (Thermos Fisher) with optical bottom.

The test system of series [2] is U2OS FlpIn Halo-SNAP-NLS expressing cells. The experiment in a line: No-wash live-cell confocal imaging, nuclear versus cytosol signal. The series is classed as cell-based. As to conditions: for Fnuc./Fcyt.: average ratio between nuclear signal (U2OS FlpIn Halo-SNAP-NLS expressing cells) and cytosol signal (normal U2OS cell), ± s.e.m.; for nuclei to cytosol signal ratio (Fnuc/Fcyt): no-wash live-cell imaging, 250 nM for MaP555-SNAP and MaP700-Halo; for intracellular kinetics of labeling relative to control probe: nuclear localized SNAP-tag or HaloTag in U2OS cells. The source says: Self-labeling protein tags such as SNAP-tag and HaloTag are an efficient approach to attach synthetic fluorophores to proteins in living cells. The main challenge when using these tags for live-cell imaging is the low cell permeability of most fluorescent probes used for labeling and high background signal resulting from their unspecific binding. SNAP-tag fusion proteins can be specifically labeled with different fluorophores using appropriate O^6-benzlyguanine derivatives. A 6-TAMRA based probe (150) for SNAP-tag has been previously introduced for live-cell imaging, but its low cell-permeability and lack of fluorogenicity requires the use of high concentrations (5 μM) and repeated washing steps to remove excess and non-specifically bound probe. To address these problem, the inventors coupled fluorophores 132-135 to O^6-benzylguanine to obtain probes 152, 154, 156, and 158. […] The inventors then examined the performance of probes 150, 152, 154, 156, and 158 in live-cell imaging, in which U2OS cells stably expressing a nuclear localized SNAP-Halo fusion protein were co-cultured with regular U2OS cells not expressing any protein tags. […] Furthermore, the kinetics of labeling of nuclear localized SNAP-tag with MaP555-SNAP were much faster than those of control […]. The inventors then prepared the corresponding 6-TAMRA-based probes 151, 153, 155, 157, and 159 for HaloTag. As for SNAP-tag, the probe with the largest enhancement in absorbance (16-fold) and fluorescence intensity (35-fold) in in vitro assays was based on the N,N-dimethylsulfamide derivative 159 (abbreviated as MaP555-Halo in the following). […] The excellent performance of MaP555-SNAP and MaP555-Halo in live-cell imaging experiments support the inventors' assumption that establishing a dynamic equilibrium between the fluorescent zwitterion and the more hydrophobic spirolactam enables the generation of highly cell-permeable and fluorogenic probes for live-cell imaging.
Generation of U2OS FlpIn Halo-SNAP-NLS Cell Lines
The Flp-In™ System (ThermoFisher Scientific) was used to generated U2OS FlpIn Halo-SNAP-NLS expressing cells. pcDNA5-FRT-Halo-SNAP-NLS and pOG44 were co-transfected into the host cell line U2OS FLpIn (Malecki et al. Molecular and Cellular Biology 26, 4642 (2006)). Homologous recombination between the FRT sites in pcDNA5-FRT-Halo-SNAP-NLS and on the host cell chromosome, catalysed by the Flp recombinase expressed from pOG44, produced the U2OS FlpIn Halo-SNAP-NLS stably expressing cells.
Live-Cell Confocal Imaging
U2OS FlpIn Halo-SNAP-NLS expressing cells were grown in 96-well plate (Thermos Fisher) with optical bottom at 37° C. in a humidified 5% (vol/vol) CO2 environment. 50-500 nM probes and 2 μM verapamil were added and incubated for 1 h in DMEM media (Evrogen) containing 10% FBS. The cells were directly used to image without washing. Meanwhile, another group was imaged after being washed 2 times for 5 min with 1× phosphate buffered saline (PBS, pH 7.4) and DMEM supplemented with 10% FBS. Imaging was performed using Leica TCS SP8 confocal microscope. TMR- and Rhodamine B—, and Rhodamine 110-based probes were excited at 540 nm and the fluorescence signal was collected from 560-700 nm. Semi-Rhodamine-based probes were excited at 650 nm and the fluorescence signal was […] from 670-760 nm. Images were processed with Fiji (http://fiji.sc/wiki/index.php/Fiji) to obtain MIP (maximum intensity projections)

The next series concerns SNAP-Halo-tag. The experiment in a line: Increase in absorbance and fluorescence on binding to SNAP-HaloTag protein in vitro. The class given is biochemical. Conditions: for Φ / ε^protein / λabs / λem: binding with SNAP-Halo-tag; for F/F0: ± s.e.m. On the procedure: Measurement of Increase in Absorbance and Fluorescence.
SNAP-HaloTag protein were used as a 85 μM-200 μM solution in 75 mM NaCl, 50 mM TRIS-HCl, pH 7.4 with 50% v/v glycerol (TBS-glycerol). SNAPTag and HaloTag based fluorogenic probes were diluted to 1.0-2.0 μM in 10 mM HEPES, pH 7.3. Then an aliquot of SNAPTag/HaloTag protein (1.5-2.0 equiv) was added and the resulting mixture was incubated until consistent absorbance signal was observed (˜60 min).
as §1

The mark [3] stands for this setting: ratio of fluorescence intensities at 635 nm in the presence and absence of SNAP-Halo-tag.
Where [4] appears, read: ratio of fluorescence intensities at 580 nm in the presence and absence of SNAP-Halo-tag.
Where [5] appears, read: upon binding to HaloTag, in vitro.
Where [6] appears, read: upon binding to SNAP-tag, in vitro.

The structures appear in SMILES notation. Marks after values point to notes of the source that are not given here. Some results are limits rather than exact numbers.

`CN(C)c1ccc2c(c1)C(C)(C)c1cc(N(C)C)ccc1C21c2cc(C(=O)NCCOCCOCCCCCCCl)ccc2C(=O)N1S(C)(=O)=O` [compound 163]: in series [1], the Φ is 0.76, the “ε^SDS” value was 45,000^c M^−1cm^−1 and the ε is on record as 1,600 M^−1cm^−1. Further, the Fnuc./Fcyt. in series [2] is given as 24 ± 1.8^f. Further, in the series on SNAP-Halo-tag, the Φ stood at 0.50, the “ε^protein” value is 121,000 M^−1cm^−1, the λabs was 618 nm and the λem came out at 635 nm. Also, the F/F0 in the series on SNAP-Halo-tag (setting [3]) is reported as 179 ± 14^e.
Turning to `CN(C)c1ccc2c(c1)Oc1cc(N(C)C)ccc1C21c2cc(C(=O)NCCOCCOCCCCCCCl)ccc2C(=O)N1C#N` [compound 153], in series [1], the Φ was 0.71, the “ε^SDS” value was 79,000 M^−1cm^−1 and the ε is 15,000 M^−1cm^−1. The Fnuc./Fcyt. in series [2] was 10 ± 0.4^f. Besides, in the series with SNAP-Halo-tag, the Φ stood at 0.46, the “ε^protein” value is 71,000 M^−1cm^−1, the λabs was 557 nm and the λem stood at 580 nm. In the series with SNAP-Halo-tag (setting [4]), the F/F0 was 7.3 ± 0.8^e.
On to `CN(C)c1ccc2c(c1)C(C)(C)c1cc(N(C)C)ccc1C21c2cc(C(=O)NCCOCCOCCCCCCCl)ccc2C(=O)N1S(=O)(=O)N(C)C` [compound 167], for which, in series [1], the “ε^SDS” value is reported as 7,200^c M^−1cm^−1 and the ε stood at 260 M⁻¹ cm⁻¹. The Fnuc./Fcyt. in series [2] is on record as 58 ± 3.9^f. For the same compound, the “nuclei to cytosol signal ratio (Fnuc/Fcyt)” value in series [2] (U2OS cells) came out at 58. For the same compound, the “time to staining / saturation / completion of labeling” value in series [2] (nuclear localized HaloTag in U2OS cells, 250 nM for MaP510-Halo and MaP700-Halo) was at most 5 min. Also, in the series on SNAP-Halo-tag, the Φ is on record as 0.61^b/—, the “ε^protein” value is given as 107,000 M^−1cm^−1, the λabs was found to be 618 nm and the λem came out at 635 nm. For the same compound, in the series on SNAP-Halo-tag (setting [3]), the F/F0 is 1000 ± 44^e. Besides, the “increase in fluorescence intensity” value with SNAP-Halo-tag (setting [5]) is 1000 fold.
For `CN(C)c1ccc2c(c1)Oc1cc(N(C)C)ccc1C21c2cc(C(=O)NCc3ccc(COc4nc(N)nc5[nH]cnc45)cc3)ccc2C(=O)N1S(C)(=O)=O` [compound 154], in series [1], the Φ turned out to be 0.65, the “ε^SDS” value was 86,000 M^−1cm^−1 and the ε is recorded as 15,000 M^−1cm^−1. Also, in series [2], the Fnuc./Fcyt. is listed as 7.9 ± 0.9^f. Moreover, in the series on SNAP-Halo-tag, the Φ is 0.38, the “ε^protein” value is on record as 65,000 M^−1cm^−1, the λabs came out at 558 nm and the λem is 580 nm. For the same compound, the F/F0 in the series on SNAP-Halo-tag (setting [4]) is given as 9.7 ± 0.1^e.
Consider `CN(C)c1ccc2c(-c3cc(C(=O)NCCOCCOCCCCCCCl)ccc3C(=O)O)c3ccc(=[N+](C)C)cc-3oc2c1` [compound 151, reference compound], for which, in series [1], the Φ was determined as 0.68, the “ε^SDS” value was 87,000 M^−1cm^−1 and the ε is listed as 58,000 M^−1cm^−1. The Fnuc./Fcyt. in series [2] is on record as 9.4 ± 1.7^f. Moreover, in the series on SNAP-Halo-tag, the Φ came out at 0.51, the “ε^protein” value is given as 82,000 M^−1cm^−1, the λabs turned out to be 555 nm and the λem came to 578 nm. In the series on SNAP-Halo-tag (setting [4]), the F/F0 is given as 1.8 ± 0.1^e.
With `CN(C)c1ccc2c(c1)C(C)(C)c1cc(N(C)C)ccc1C21c2cc(C(=O)NCCOCCOCCCCCCCl)ccc2C(=O)N1S(N)(=O)=O` [compound 165], in series [1], the “ε^SDS” value is 8,300^c M^−1cm^−1 and the ε came to 440 M⁻¹ cm⁻¹. Also, the Fnuc./Fcyt. in series [2] is reported as 30 ± 4.5^f. Moreover, in the series with SNAP-Halo-tag, the Φ is 0.58^b/—, the “ε^protein” value is 101,000 M^−1cm^−1, the λabs amounted to 618 nm and the λem came to 635 nm. Also, the F/F0 in the series on SNAP-Halo-tag (setting [3]) is 611 ± 42^e.
For `CN(C)c1ccc2c(c1)Oc1cc(N(C)C)ccc1C21c2cc(C(=O)NCCOCCOCCCCCCCl)ccc2C(=O)N1S(=O)(=O)N(C)C` [compound 159], in series [1], the Φ is 0.63, the “ε^SDS” value is 92,000 M^−1cm^−1 and the ε is on record as 5,200 M^−1cm^−1. In series [2] (U2OS cells, no washing), the “signal and background in no-wash live-cell imaging” value is reported as “much lower background signal”. In addition, in series [2], the Fnuc./Fcyt. is given as 18 ± 2.9^f and the “intracellular kinetics of labeling relative to control probe” value is on record as “about two-fold faster”. Also, in the series with SNAP-Halo-tag, the Φ worked out at 0.54, the “ε^protein” value was 87,000 M^−1cm^−1, the λabs is 558 nm and the λem stood at 578 nm. Further, in the series with SNAP-Halo-tag (setting [4]), the F/F0 is 35 ± 2.3^e. Moreover, in the series on SNAP-Halo-tag (setting [5]), the increase in absorbance worked out at 16 fold and the “increase in fluorescence intensity” value came out at 35 fold.
For `CN(C)c1ccc2c(c1)Oc1cc(N(C)C)ccc1C21c2cc(C(=O)NCCOCCOCCCCCCCl)ccc2C(=O)N1S(C)(=O)=O` [compound 155], in series [1], the Φ is given as 0.66, the “ε^SDS” value was 95,000 M^−1cm^−1 and the ε is 40,000 M^−1cm^−1. In series [2], the Fnuc./Fcyt. is 12 ± 2.6^f. In the series on SNAP-Halo-tag, the Φ came to 0.56, the “ε^protein” value is listed as 85,000 M^−1cm^−1, the λabs turned out to be 559 nm and the λem worked out at 580 nm. In addition, the F/F0 with SNAP-Halo-tag (setting [4]) is 3.7 ± 0.4^e.
`CN(C)c1ccc2c(c1)Oc1cc(N(C)C)ccc1C21c2cc(C(=O)NCc3ccc(COc4nc(N)nc5[nH]cnc45)cc3)ccc2C(=O)N1S(=O)(=O)N(C)C` [compound 158]: in series [1], the Φ was found to be 0.61, the “ε^SDS” value was 88,000 M^−1cm^−1 and the ε was 3,500 M^−1cm^−1. Moreover, in series [2], the Fnuc./Fcyt. is on record as 15 ± 2.9^f and the “intracellular kinetics of labeling relative to control probe” value is reported as “much faster”. In addition, the “nuclei to cytosol signal ratio (Fnuc/Fcyt)” value in series [2] (U2OS cells) was found to be 15. In the series on SNAP-Halo-tag, the Φ amounted to 0.46, the “ε^protein” value is on record as 54,000 M^−1cm^−1, the λabs was 556 nm and the λem worked out at 576 nm. Besides, the F/F0 in the series with SNAP-Halo-tag (setting [4]) is given as 21 ± 3.2^e. Besides, in the series with SNAP-Halo-tag (setting [6]), the “increase in absorbance at 555 nm” value was 15 fold and the “increase in intensity of fluorescence emission at 580 nm” value was found to be 21 fold.
Regarding `CN(C)c1ccc2c(c1)C(C)(C)c1cc(N(C)C)ccc1C21c2cc(C(=O)NCCOCCOCCCCCCCl)ccc2C(=O)N1C#N` [compound 161], in series [1], the Φ is given as 0.72, the “ε^SDS” value is 70,000^c M^−1cm^−1 and the ε is listed as 1,500 M^−1cm^−1. In series [2], the Fnuc./Fcyt. was 19 ± 1.2^f. Moreover, in the series with SNAP-Halo-tag, the Φ was determined as 0.53, the “ε^protein” value was 144,000 M^−1cm^−1, the λabs was found to be 618 nm and the λem came to 635 nm. For the same compound, the F/F0 with SNAP-Halo-tag (setting [3]) is 112 ± 3.8^e.
